Biological target: T1, Human SGLT2 (hSGLT2) (Homo sapiens, UniProt P31639)
T1 construct: expressed in transfected cells
T1 sequence (P31639 1-672): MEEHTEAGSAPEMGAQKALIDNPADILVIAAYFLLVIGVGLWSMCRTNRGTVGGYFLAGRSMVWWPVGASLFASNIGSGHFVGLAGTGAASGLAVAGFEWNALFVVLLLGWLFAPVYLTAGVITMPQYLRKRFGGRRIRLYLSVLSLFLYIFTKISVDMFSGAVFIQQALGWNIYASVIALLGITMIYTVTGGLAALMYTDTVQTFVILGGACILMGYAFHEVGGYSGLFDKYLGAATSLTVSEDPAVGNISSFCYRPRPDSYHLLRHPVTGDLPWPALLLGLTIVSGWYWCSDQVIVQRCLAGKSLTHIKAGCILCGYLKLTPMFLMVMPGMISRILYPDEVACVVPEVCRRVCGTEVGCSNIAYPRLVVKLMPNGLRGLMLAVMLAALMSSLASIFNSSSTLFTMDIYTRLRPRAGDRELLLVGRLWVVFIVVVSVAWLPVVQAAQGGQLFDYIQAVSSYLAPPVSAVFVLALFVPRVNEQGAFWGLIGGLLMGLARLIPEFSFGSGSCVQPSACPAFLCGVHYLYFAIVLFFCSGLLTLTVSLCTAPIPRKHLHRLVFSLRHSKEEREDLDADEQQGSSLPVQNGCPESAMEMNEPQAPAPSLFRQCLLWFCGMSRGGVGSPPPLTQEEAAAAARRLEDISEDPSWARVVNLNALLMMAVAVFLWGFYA
Assay: Sodium-dependent glucose transport (14C-AMG uptake) assay in CHO cells stably expressing hSGLT2
Assay type: cell-based
Conditions: CHO cells expressing hSGLT2, 14C-AMG uptake, 37° C. for 2 h; single determinations; read-out: hSGLT2 Inhibitory Activity IC50
Outline: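 Uptake of 14C-α-methyl-D-glucopyranoside (8 μM labeled, 1 mM unlabeled, NaCl buffer pH 7.4) measured over 2 h at 37 °C with inhibitor in hSGLT2-transfected CHO cells after 10 min choline-buffer pretreatment. Radioactivity by liquid scintillation; IC50 from nonlinear regression.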

Row | SMILES | IC50
1 | OC[C@H]1O[C@@H](c2cc(Cc3ncc(-c4ccco4)s3)c3ccccc3c2)[C@H](O)[C@@H](O)[C@@H]1O [Example 104, (2S,3R,4R,5S,6R)-2-(4-((5-(Furan-2-yl)thiazol-2-yl)methyl)naphthalen-2-yl)-6-(hydroxymethyl)-tetrahydro-2H-pyran-3,4,5-triol] | 100 nM
2 | CCc1cnc(Cc2cc([C@@H]3O[C@H](CO)[C@@H](O)[C@H](O)[C@H]3O)cc3ccccc23)s1 [Example 105, (2S,3R,4R,5S,6R)-2-(4-((5-Ethylthiazol-2-yl)methyl)naphthalen-2-yl)-6-(hydroxymethyl)-tetrahydro-2H-pyran-3,4,5-triol] | 243 nM
3 | CCOC(=O)c1cnc(Cc2cc([C@@H]3O[C@H](CO)[C@@H](O)[C@H](O)[C@H]3O)ccc2Cl)s1 [Example 106, Ethyl 2-(2-chloro-5-((2S,3R,4R,5S,6R)-3,4,5-trihydroxy-6-(hydroxymethyl)-tetrahydro-2H-pyran-2-yl)benzyl)thiazole-5-carboxylate] | 50.3 nM
4 | OC[C@H]1O[C@@H](c2ccc(Cl)c(Cc3ncc(-c4nncs4)s3)c2)[C@H](O)[C@@H](O)[C@@H]1O [Example 107, (2S,3R,4R,5S,6R)-2-(3-((5-(1,3,4-Thiadiazol-2-yl)thiazol-2-yl)methyl)-4-chlorophenyl)-6-(hydroxymethyl)-tetrahydro-2H-pyran-3,4,5-triol] | 14 nM
5 | N#Cc1ccc([C@@H]2O[C@H](CO)[C@@H](O)[C@H](O)[C@H]2O)cc1Cc1ncc(-c2ccco2)s1 [Example 108, 2-((5-(Furan-2-yl)thiazol-2-yl)methyl)-4-((2S,3R,4R,5S,6R)-3,4,5-trihydroxy-6-(hydroxymethyl)-tetrahydro-2H-pyran-2-yl)benzonitrile] | 36.7 nM
6 | OC[C@H]1O[C@@H](c2ccc(C3CC3)c(Cc3ncc(-c4ccco4)s3)c2)[C@H](O)[C@@H](O)[C@@H]1O [Example 110, (2S,3R,4R,5S,6R)-2-(4-Cyclopropyl-3-((5-(furan-2-yl)thiazol-2-yl)methyl)phenyl)-6-(hydroxymethyl)-tetrahydro-2H-pyran-3,4,5-triol] | 54.8 nM
7 | OC[C@H]1O[C@@H](c2cccc(Cc3ncc(-c4ccco4)s3)c2)[C@H](O)[C@@H](O)[C@@H]1O [Example 111, (2S,3R,4R,5S,6R)-2-(3-((5-(Furan-2-yl)thiazol-2-yl)methyl)phenyl)-6-(hydroxymethyl)-tetrahydro-2H-pyran-3,4,5-triol] | 22.6 nM
8 | OC[C@H]1O[C@@H](c2cc(Cc3ncc(-c4ccco4)s3)c(Cl)cc2O)[C@H](O)[C@@H](O)[C@@H]1O [Example 112, (2S,3R,4R,5S,6R)-2-(4-Chloro-5-((5-(furan-2-yl)thiazol-2-yl)methyl)-2-hydroxyphenyl)-6-(hydroxymethyl)-tetrahydro-2H-pyran-3,4,5-triol] | 0.797 nM
9 | COCCOc1cc(Cl)c(Cc2ncc(-c3ccco3)s2)cc1[C@@H]1O[C@H](CO)[C@@H](O)[C@H](O)[C@H]1O [Example 117, (2S,3R,4R,5S,6R)-2-(4-Chloro-5-((5-(furan-2-yl)thiazol-2-yl)methyl)-2-(2-methoxyethoxy)phenyl)-6-(hydroxymethyl)-tetrahydro-2H-pyran-3,4,5-triol] | 5.55 nM
10 | OCCOc1cc(Cl)c(Cc2ncc(-c3ccco3)s2)cc1[C@@H]1O[C@H](CO)[C@@H](O)[C@H](O)[C@H]1O [Example 121, (2S,3R,4R,5S,6R)-2-(4-Chloro-5-((5-(furan-2-yl)thiazol-2-yl)methyl)-2-(2-hydroxyethoxy)phenyl)-6-(hydroxymethyl)tetrahydro-2H-pyran-3,4,5-triol] | 1.51 nM
11 | OC[C@H]1O[C@@H](c2cc(Cc3ncc(-c4ccco4)s3)c(Cl)cc2OCCn2cncn2)[C@H](O)[C@@H](O)[C@@H]1O [Example 122, (2S,3R,4R,5S,6R)-2-(2-(2-(1H-1,2,4-Triazol-1-yl)ethoxy)-4-chloro-5-((5-(furan-2-yl)thiazol-2-yl)methyl)phenyl)-6-(hydroxymethyl)-tetrahydro-2H-pyran-3,4,5-triol] | 131 nM
12 | OC[C@H]1O[C@@H](c2cc(Cc3ncc(-c4ccc(F)cc4)s3)c(O)c3ccccc23)[C@H](O)[C@@H](O)[C@@H]1O [Example 123, (2S,3R,4R,5S,6R)-2-(3-((5-(4-Fluorophenyl)thiazol-2-yl)methyl)-4-hydroxynaphthalen-1-yl)-6-(hydroxymethyl)-tetrahydro-2H-pyran-3,4,5-triol] | 58.2 nM
13 | OC[C@H]1O[C@@H](c2cc(Cc3ncc(-c4cccs4)s3)c(O)c3ccccc23)[C@H](O)[C@@H](O)[C@@H]1O [Example 124, (2S,3R,4R,5S,6R)-2-(4-Hydroxy-3-((5-(thiophen-2-yl)thiazol-2-yl)methyl)naphthalen-1-yl)-6-(hydroxymethyl)-tetrahydro-2H-pyran-3,4,5-triol] | 7.97 nM
14 | OC[C@H]1O[C@@H](c2cc(Cc3ncc(-c4ccccc4)s3)c(O)c3ccccc23)[C@H](O)[C@@H](O)[C@@H]1O [Example 125, (2S,3R,4R,5S,6R)-2-(4-Hydroxy-3-((5-phenylthiazol-2-yl)methyl)naphthalen-1-yl)-6-(hydroxymethyl)-tetrahydro-2H-pyran-3,4,5-triol] | 30.6 nM
15 | CCCc1cnc(Cc2cc([C@@H]3O[C@H](CO)[C@@H](O)[C@H](O)[C@H]3O)c3ccccc3c2O)s1 [Example 126, (2S,3R,4R,5S,6R)-2-(4-Hydroxy-3-((5-propylthiazol-2-yl)methyl)naphthalen-1-yl)-6-(hydroxymethyl)-tetrahydro-2H-pyran-3,4,5-triol] | 67.3 nM
16 | CCCCCCCc1cnc(Cc2cc([C@@H]3O[C@H](CO)[C@@H](O)[C@H](O)[C@H]3O)c3ccccc3c2O)s1 [Example 127, (2S,3R,4R,5S,6R)-2-(3-((5-Heptylthiazol-2-yl)methyl)-4-hydroxynaphthalen-1-yl)-6-(hydroxymethyl)-tetrahydro-2H-pyran-3,4,5-triol] | 32.8 nM
17 | CCOc1cnc(Cc2cc([C@@H]3O[C@H](CO)[C@@H](O)[C@H](O)[C@H]3O)c3ccccc3c2O)s1 [Example 128, (2S,3R,4R,5S,6R)-2-(3-((5-Ethoxythiazol-2-yl)methyl)-4-hydroxynaphthalen-1-yl)-6-(hydroxymethyl)-tetrahydro-2H-pyran-3,4,5-triol] | 116 nM
18 | OC[C@H]1O[C@]2(OCc3cc(Cl)c(C4(c5ncc(-c6cccs6)s5)CC4)cc32)[C@H](O)[C@@H](O)[C@@H]1O [Example 129, (1S,3′R,4′S,5′S,6′R)-5-Chloro-6′-(hydroxymethyl)-6-(1-(5-(thiophen-2-yl)thiazole-2-yl)cyclopropyl)-3′,4′,5′,6′-tetrahydro-3H-spiro[isobenzofuran-1,2′-pyran]-3′,4′,5′-triol] | 160 nM
19 | OC[C@H]1O[C@@H](n2cc(Cc3ncc(-c4ccco4)s3)c3ccccc32)[C@H](O)[C@@H](O)[C@@H]1O [Example 130, (2R,3R,4S,5S,6R)-2-(3-((5-(Furan-2-yl)thiazol-2-yl)methyl)-1H-indol-1-yl)-6-(hydroxymethyl)-tetrahydro-2H-pyran-3,4,5-triol] | 8.75 nM
20 | OC[C@H]1O[C@@H](n2cc(Cc3ncc(-c4cccs4)s3)c3ccccc32)[C@H](O)[C@@H](O)[C@@H]1O [Example 131, (2R,3S,4S,5R,6R)-2-(Hydroxymethyl)-6-(3-((5-(thiophen-2-yl)thiazol-2-yl)methyl)-1H-indol-1-yl)tetrahydro-2H-pyran-3,4,5-triol] | 13.8 nM

From patent publication US8586550B2, “Thiazole derivatives as SGLT2 inhibitors and pharmaceutical composition comprising same” (Green Cross Corporation, priority 2010, dated 2013)
